The values below come from patent publication US20090035353A1 (priority 2001, published 2009).

Common to all, as to assay type: cell-based, Staphylococcus aureus
The test system of experiment [1] is production of TSST-1 by S. aureus (MN8).
For experiment [2], the system named is TSST-1 production by S. aureus FRI-1169.
For experiment [3], the system named is TSST-1 production by S. aureus FRI-1187.

Take “4-hydroxydiphenyl methane [4-Hydroxydiphenyl-methane]”: the “ELISA: TSST-1 ng/OD unit” value in experiment [1] amounted to 785.

Turning to `Oc1c(Cl)cc(Cl)c(Cl)c1Cc1c(O)c(Cl)cc(Cl)c1Cl` [Hexachlorophene, hexachlorophene], in experiment [1], the “ELISA: TSST-1 ng/OD unit” value amounted to 330 and the “TSST-1 produced when compared to the control” value is “significantly less TSST-1”.

On to `Oc1cc(Cl)ccc1Oc1ccc(Cl)cc1Cl` [Triclosan, triclosan], for which the “ELISA: TSST-1 ng/OD unit” value was determined as 129 in experiment [1], 40 in experiment [2] and 95 in experiment [3]. For the same compound, the “TSST-1 produced when compared to the control” value in experiment [1] is listed as “significantly less TSST-1”; in experiment [2] it was “less TSST-1”; in experiment [3], “less TSST-1”.
